Experimental findings from patent US11766447B2, “3′3′-cyclic dinucleotide analogue comprising a cyclopentanyl modified nucleotide as sting modulator” (INSTITUTE OF ORGANIC CHEMISTRY AND BIOCHEMISTRY ASCR, V.V.I., priority 2019, dated 2023) are described below.

The target in assay [1] is T1, WT STING (Homo sapiens, UniProt Q86WV6, H232R). In words: Digitonin assay using 293T wtSTING-FL reporter cells. Type of assay: cell-based. Further details: host or cells: 293T (ATCC CRL-3216), stably transfected, with 4xISRE firefly luciferase reporter. As to conditions: 293T wtSTING-FL cells, ISRE firefly luciferase; compounds in Digitonin buffer 30 minutes, then 5 hours; 8-point curve. The text has this:
Two complementary oligonucleotides of the sequence […] […] […] […] […] The oligonucleotides were mixed in equal molar amounts, hybridized, and cleaved by restriction endonucleases HindIII (cat. #. R0104S, NEB, Ipswich, USA) and BglII (cat. #R0144S, NEB, Ipswich, USA). Ultimately, they were ligated into plasmid pGL4.27 (cat. #E6651, Promega, Madison, USA) linearized with the same enzymes. As result the sequence with four ISRE sites was placed upstream of the minimum promoter of firefly luciferase reporter gene.
After 5 minutes incubation at room temperature (RT), 250 μL of the mixture was added dropwise to the cells in one well. Cells were incubated 36 hours at 37° C. with 5% CO2, and then detached with 0.05% Trypsin and 0.22 g/L EDTA (both cat. #L0941, Biowest, Riverside, USA).
Transfected cells were seeded onto poly-D-lysine coated six well plates at density 50,000 cells per 1 cm^2 in DMEM medium with high glucose containing 10% heat inactivated FBS, 30 μg/mL blasticidin (cat. #ant-b1-05, InvivoGen, San Diego, USA), 0.06 mg/ml Penicillin G and 0.1 mg/ml Streptomycin Sulfate (both cat. #. L0018, Biowest, Riverside, USA). The medium was replenished every 3-4 days until visible colonies of cells resistant to blasticidin were formed.
Blasticidin resistant cells stably expressing WT STING were further transfected with […] plasmid following the same procedure as described above. […] Homogeneous culture of stably double transfected cells was prepared by limiting dilution of cells in 96 well plates and wells with cells were selected that originated from a single cell.
The medium was removed next day and three fold serial dilutions of compounds in Digitonin buffer containing 50 mmol·l^−1 HEPES (cat. #H3375, Sigma Aldrich, Czech Republic) pH 7.0, 100 mmol·l^−1 KCl, 3 mmol·l^−1 MgCl2, 0.1 mmol·l^−1 DTT (cat. #D0632, Sigma Aldrich, Czech Republic), 85 mmol·l^−1 Sucrose (cat. #S7903, Sigma Aldrich, Czech Republic), 0.2% BSA (cat. #A2153, Sigma Aldrich, Czech Republic), 1 mmol·l^−1 ATP (cat. #A1852, Sigma Aldrich, Czech Republic), 0.1 mmol·l^−1 GTP (cat. #G8877, Sigma Aldrich, Czech Republic), and 10 μg/mL Digitonin A (cat. #D141, Sigma Aldrich, Czech Republic) were added to the cells. The buffer was removed after 30 minutes incubation at 37° C. with 5% CO2, the cells were washed once with 100 μl of cultivation medium, and 100 μl of medium was added to each well. The plates with cells were incubated for 5 hours at 37° C. with 5% CO2, 50 μl of the medium was removed and 30 μl of ONE-Glo™ Luciferase Assay System reagent (cat. #E6120, Promega, Madison, USA) was added to each well. Luminescence was read on Synergy H1 (Biotek, Winooski, USA). GraphPad Prism (La Jolla, USA) was used to calculate the 50% effective concentration ([…] from an 8-point dose-response curve.
Target sequence in this assay (Q86WV6 whole entry H232R): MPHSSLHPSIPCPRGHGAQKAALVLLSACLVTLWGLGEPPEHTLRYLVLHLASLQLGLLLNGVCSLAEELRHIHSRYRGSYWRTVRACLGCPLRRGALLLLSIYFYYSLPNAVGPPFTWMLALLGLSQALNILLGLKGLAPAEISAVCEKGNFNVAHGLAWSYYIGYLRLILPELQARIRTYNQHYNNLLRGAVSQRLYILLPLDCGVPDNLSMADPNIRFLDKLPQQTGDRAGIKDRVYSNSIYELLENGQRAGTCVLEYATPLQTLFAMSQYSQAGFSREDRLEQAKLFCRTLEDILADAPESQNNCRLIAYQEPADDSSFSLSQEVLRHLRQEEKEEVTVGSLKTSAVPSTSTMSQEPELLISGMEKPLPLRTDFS

The next assay concerns the target T2, AQ STING (G230A-R293Q) (Homo sapiens, UniProt Q86WV6, G230A/H232R/R293Q).
T2 construct: 8xHis (N, cleaved yes); SUMO (N, cleaved yes); made in house; host or cells: E. coli Rosetta-gami B (DE3)
Briefly: Differential scanning fluorimetry (DSF) with AQ STING. Type of assay: binding. The settings on record: thermal shift vs apoprotein; 150 μM CDN; truncated human AQ STING 0.1 mg/ml. The protocol: (§1) Purified PCR products were cleaved with restriction enzymes BamHI (cat. #R0136S, NEB, Ipswich, USA) and NotI (cat. #R0189S, NEB, Ipswich, USA) and cloned into the pSUMO vector linearized with the identical enzymes.
(§2) DNase I (cat. #D5025, Sigma Aldrich, Czech Republic) and RNase A (cat. #R6513, Sigma Aldrich, Czech Republic) were added (final concentration 50 μg/ml) together with MgCl2 (final concentration 5 mmol·l^−1) to the homogenate and bacteria were lysed using French Press G-M™ High-Pressure Cell Press Homogenizer (1500 psi, 3 cycles). […] The resin was poured into a chromatography column, washed with 50 ml buffer A (50 mmol·l^−1 TrisCl (pH 8.0), 800 mmol·l^−1 NaCl, 3 mmol·l^−1 β-mercaptoethanol; 10% glycerol; 20 mmol·l^−1 imidazol) and 8-His-SUMO tagged STING proteins were eluted with 15 ml buffer A containing 300 mmol·l^−1 imidazole. […] Proteins were concentrated with Amicon® Ultra-15 10 K device (cat. #UFC901008, Merck Millipore, Billerica, USA) and flash frozen in liquid N2.
(§3) 20 μL solutions of the reaction mixtures were pipetted in triplicates into 96 well optical reaction plates and thermal denaturation of samples were performed on real time PCR cycler (LightCycler® 480 Instrument II—Roche, Basel, Switzerland). The first derivative of the thermal denaturation curves was performed to calculate denaturing temperatures of STING-CDN complexes and STING apoproteins. The thermal shift for each CDN was calculated by subtracting the average denaturing temperature of STING apoprotein from the average denaturing temperature of STING CDN complex.

Assay [2] concerns the target T1, WT STING. Briefly: Differential scanning fluorimetry (DSF) with WT STING. Type of assay: binding. The arrangement: 8xHis (N, cleaved yes); SUMO (N, cleaved yes); made in house; host or cells: E. coli Rosetta-gami B (DE3). The settings on record: thermal shift vs apoprotein; 150 μM CDN; truncated human WT STING 0.1 mg/ml. The procedure:
as §1, §2, §3
Target sequence in this assay (Q86WV6 140-343 H232R): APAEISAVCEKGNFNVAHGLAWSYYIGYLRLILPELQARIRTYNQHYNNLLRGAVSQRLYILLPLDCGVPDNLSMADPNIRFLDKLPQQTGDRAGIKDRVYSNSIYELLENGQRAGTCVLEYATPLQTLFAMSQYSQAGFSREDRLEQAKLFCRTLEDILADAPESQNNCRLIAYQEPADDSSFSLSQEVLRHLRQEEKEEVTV

T2 sequence (Q86WV6 140-343 G230A/H232R/R293Q): as the sequence (Q86WV6 140-343 H232R) above, with G91A, R154Q counted along it

Take `Nc1nc2c(ncn2[C@@H]2O[C@@H]3COP(=O)(O)OC4C(O)[C@H](n5cnc6c(N)ncnc65)C[C@@H]4COP(=O)(O)OC3C2F)c(=O)[nH]1` (single isomer, unassigned) [Compound 109]: the EC50 at WT STING [1] was 10 nM. For the same compound, the ΔTm at 150 µM at AQ STING (G230A-R293Q) was found to be 18.5 °C. The “DSF ΔTm (° C.) WT STING” value on WT STING [2] worked out at 8.9 °C.
Consider `Nc1nc2c(ncn2[C@@H]2C[C@@H]3COP(=O)(O)OC4C(F)[C@H](n5cnc6c(N)ncnc65)O[C@@H]4COP(=O)(O)OC3C2O)c(=O)[nH]1` (single isomer, unassigned) [Compound 103], for which, on WT STING [1], the EC50 came out at 10 nM. Moreover, the “DSF ΔTm (° C.) AQ STING” value on AQ STING (G230A-R293Q) was found to be 16.6 °C. The “DSF ΔTm (° C.) WT STING” value on WT STING [2] is 7.6 °C.
For `Nc1ncnc2c1ncn2[C@@H]1O[C@@H]2COP(=O)(O)O[C@H]3[C@@H](O)[C@H](n4cnc5c(N)ncnc54)O[C@@H]3COP(=O)(O)O[C@H]2[C@H]1O` [3′3′c-di-AMP, reference compound], in that order: 300 nM, 9.3 °C and 2.6 °C.
As to `Nc1nc2c(ncn2[C@H]2CC3OP(=O)(O)OC[C@H]4C[C@@H](n5cnc6c(N)ncnc65)C(O)C4OP(=O)(O)OC[C@H]3O2)c(=O)[nH]1` (stereo partly drawn) [Compound 110, 2-amino-9-((2R,3a5,7aR,9R,10S,10aR,14aR)-9-(6-amino-9H-purin-9-yl)-5,10,12-trihydroxy-5,12-dioxidodecahydro-2H-cyclopenta[d]furo[3,2-j][1,3,7,9]tetraoxa[2,8]diphosphacyclododecin-2-yl)-1,9-dihydro-6H-purin-6-one], on WT STING [1], the half-maximal effective concentration (EC50) was determined as 50 nM. For the same compound, the ΔTm at 150 µM worked out at 15.7 °C at AQ STING (G230A-R293Q) and 5.8 °C on WT STING [2].
Consider `Nc1nc2c(ncn2[C@@H]2O[C@@H]3COP(=O)(O)OC4C(O)[C@H](n5cnc6c(N)ncnc65)C[C@@H]4COP(=O)(O)OC3C2O)c(=O)[nH]1` (stereo partly drawn) [Compound 112, 2-amino-9-((2R,3S,3aS,7aR,9R,10S,10aR,14aR)-9-(6-amino-9H-purin-9-yl)-3,5,10,12-tetrahydroxy-5,12-dioxidodecahydro-2H-cyclopenta[d]furo[3,2-j][1,3,7,9]tetraoxa[2,8]diphosphacyclododecin-2-yl)-1,9-dihydro-6H-purin-6-one], for which the EC50 at WT STING [1] is 120 nM. In addition, on AQ STING (G230A-R293Q), the “DSF ΔTm (° C.) AQ STING” value was 13.2 °C. Further, the “DSF ΔTm (° C.) WT STING” value on WT STING [2] came out at 5.2 °C.
As for `Nc1ncnc2c1ncn2[C@@H]1O[C@@H]2COP(=O)(O)OC3C(O)[C@H](n4cnc5c(=O)[nH]cnc54)C[C@@H]3COP(=O)(O)OC2C1F` (stereo partly drawn) [Compound 107, 9-((2R,3R,3aR,7aR,9R,10S,10aR,14aR)-2-(6-amino-9H-purin-9-yl)-3-fluoro-5,10,12-trihydroxy-5,12-dioxidodecahydro-2H-cyclopenta[d]furo[3,2-j][1,3,7,9]tetraoxa[2,8]diphosphacyclododecin-9-yl)-1,9-dihydro-6H-purin-6-one], the EC50 on WT STING [1] is 10 nM. For the same compound, the values for the ΔTm at 150 µM on AQ STING (G230A-R293Q) and on WT STING [2] were 16.7 °C and 7.6 °C, respectively.
`Nc1ncnc2c1ncn2[C@@H]1C[C@@H]2COP(=O)(O)OC3C(F)[C@H](n4cnc5c(N)ncnc54)O[C@@H]3COP(=O)(S)OC2C1F` (single isomer, unassigned) [Compound 141a]: the EC50 at WT STING [1] turned out to be 3000 nM. Besides, the “DSF ΔTm (° C.) AQ STING” value on AQ STING (G230A-R293Q) was 3.9 °C. The “DSF ΔTm (° C.) WT STING” value at WT STING [2] stood at 0.3 °C.
As for `Nc1nc2c(ncn2[C@@H]2C[C@@H]3COP(=O)(O)OC4C(F)[C@H](n5cnc6c(=O)[nH]c(N)nc65)O[C@@H]4COP(=O)(O)OC3C2O)c(=O)[nH]1` (stereo partly drawn) [Compound 122, 9,9′-((2R,3R,3aR,7aR,9R,10S,10aR,14aR)-3-fluoro-5,10,12-trihydroxy-5,12-dioxidodecahydro-2H-cyclopenta[d]furo[3,2-j][1,3,7,9]tetraoxa[2,8]diphosphacyclododecine-2,9-diyl)bis(2-amino-1,9-dihydro-6H-purin-6-one)], the EC50 at WT STING [1] was found to be 1600 nM. The figures for the ΔTm at 150 µM on AQ STING (G230A-R293Q) and at WT STING [2] were 9.5 °C and 3.5 °C, respectively.
The corresponding values for `Nc1nc2c(ncn2[C@H]2CC3OP(=O)(O)OC[C@H]4C[C@@H](n5cnc6c(=O)[nH]c(N)nc65)C(O)C4OP(=O)(O)OC[C@H]3C2)c(=O)[nH]1` (stereo partly drawn) [Compound 123, 9,9′-((2R,3S,3aR,7aR,9R,10aS,14aR)-3,5,12-trihydroxy-5,12-dioxidododecahydrodicyclopenta[d,j][1,3,7,9]tetraoxa[2,8]-diphospha-cyclododecine-2,9-diyl)bis(2-amino-1,9-dihydro-6H-purin-6-one)] are 1200 nM, 4.6 °C and 1.1 °C.
The corresponding values for `Nc1nc2c(ncn2[C@H]2CC3OP(=O)(O)OC[C@H]4O[C@@H](n5cnc6c(N)ncnc65)C(F)C4OP(=O)(O)OC[C@H]3C2)c(=O)[nH]1` (stereo partly drawn) [Compound 116, (6R,8R,15R,17R)-17-(2-amino-6-oxo-6,9-dihydro-1H-purin-9-yl)-8-(6-amino-9H-purin-9-yl)-9-fluoro-3,12-dihydroxy-2,4,7,11,13-pentaoxa-3λ^5,12λ^5-diphosphatricyclo[13.3.0.0^6,10]octadecane-3,12-dione] are 7 nM, 13.1 °C and 8.5 °C.
Turning to `Nc1nc2c(ncn2[C@@H]2C[C@@H]3COP(=O)(O)O[C@H]4[C@@H](O)[C@H](n5cnc6c(N)ncnc65)O[C@@H]4COP(=O)(O)O[C@H]3[C@H]2O)c(=O)[nH]1` [Compound 101, 2-amino-9-((2R,3R,3aS,7aR,9R,10S,10aR,14aR)-2-(6-amino-9H-purin-9-yl)-3,5,10,12-tetrahydroxy-5,12-dioxidodecahydro-2H-cyclopenta[d]furo[3,2-j][1,3,7,9]tetraoxa[2,8]diphosphacyclo-dodecin-9-yl)-1,9-dihydro-6H-purin-6-one], the EC50 at WT STING [1] turned out to be 800 nM. In addition, the “DSF ΔTm (° C.) AQ STING” value at AQ STING (G230A-R293Q) is 11.3 °C. Also, the “DSF ΔTm (° C.) WT STING” value on WT STING [2] is 3.6 °C.
For `Nc1nc2c(ncn2[C@@H]2C[C@@H]3COP(=O)(O)OC4C(F)[C@H](n5cnc6c(N)ncnc65)O[C@@H]4COP(=O)(O)OC3C2O)c(=O)[nH]1` (single isomer, unassigned) [Compound 105], in that order: 1600 nM, 7.0 °C and 0.8 °C.
